Data from US20080077999A1, “Using Nonhuman Animal Model, Method of Measuring Transcription Activity Method of Measuring Cell Quantity and Method of Measuring Tumor Volume” (Eisai R&D Management Co., Ltd., priority 2004, published 2008).

Experiments:
[1] = test system: transcriptional activity through STAT6 activation by IL4 stimulation; conditions: in vitro; cited from earlier work
[2] = test system: transcriptional activity through STAT6 activation by IL4 stimulation; experiment: Test of inhibitory action in mouse air pouch model introduced with E9 cells (blood PLAP activity after IL4 stimulation); format: in vivo, CDF1 mouse; conditions: orally administered 20 mg/kg, 1 hour before IL4 injection into air pouch; plasma 24 hours after IL4
Protocol: 5% cytodex3 (Amersham Bioscience, 17-0485-01) solution and 2% CMC solution (Daiichi Kogyo Seiyaku Co., Ltd.) were prepared. More specifically, 5 g of cytodex3 was suspended in 100 ml of PBS (SIGMA, R8537) and sterilized by autoclaving. On the other hand, the 2% CMC solution was prepared by adding 2 g of CMC in 100 ml of PBS while stirring with a stirrer bar and followed by sterilization by autoclaving.
Then, E9 cells were subjected to trypsin-EDTA treatment to be removed from the wall of the vessel and the cells were suspended in DMEM to make 1.0×10^6 cells/ml. 0.2 g of cytodex3 was mixed with 1.0×10^7 cells/ml of E9 cells. More specifically, 4 ml of 5% cytodex3 solution was mixed with 10 ml of 1.0×10^6 cells/ml of cell suspension. Then, the cell/cytodex3 suspension was inoculated on a non-tissue culture plate (IWAKI, SH90-15) and cultured in a CO2 incubator. […]
After 24 hours, orbital blood drawing was conducted using a heparin-treated Terumo hematocrit capillary tube (TERUMO Corporation, VC-H075H). […] To inactivate endogenous alkaline phosphatase, the plasma sample was treated in a hot water bath at 65° C. for 10 minutes and then PLAP activity derived from E9 cells in the plasma was measured. […] Subsequently, while shielding light, the mixture was incubated at room temperature for 1 hour, followed by measurement of intensity of chemiluminescence using a plate reader (Perkin Elmer, ARVO).

[3] = test system: E9 cell (HEK293 with STAT6-PLAP reporter plasmid and STAT6-expression vector plasmid); experiment: PLAP activity in culture supernatant of cells stably expressing STAT6-PLAP reporter plasmid and STAT6 expression vector plasmid upon human IL4 stimulation; format: cell-based; conditions: human IL4 final concentration 1 ng/ml, next day
Protocol: More specifically, the cloned cell was subjected to trypsin-EDTA treatment to be removed from the wall of the vessel and suspended in DMEM and cells were inoculated on a 96-well cell culture plate to be 1.0×10^4 cells/190 μl/well. On the next day, 10 μl of 20 ng/ml human IL4 (Calbiochem, 407635) was added to the culture medium at a final concentration of 1 ng/ml. On the next day, the culture supernatant was recovered and the PLAP activity in the culture supernatant was measured.
More specifically, 100 μl of PLAP buffer (0.28 M Na2CO3—NaHCO3 pH 10.0, 8 mM MgSO4) was added to a black plate for ELISA (Sumitomo Bakelite Co., Ltd., No. MS-8496K), and 10 μl of the culture supernatant which had been treated in a hot water bath at 65° C. for 10 minutes was added thereto. Then, 50 μl of Lumi-Phos 530 (Lumigen, Inc.) was added, followed by mixing. Subsequently, while shielding light, the mixture was incubated at room temperature for 1 hour, followed by measurement of intensity of chemiluminescence using a plate reader (Perkin Elmer, ARVO). […] Hereinafter, this clone is named E9 cell.

[4] = test system: E9 cells (STAT6-PLAP reporter); experiment: Mouse air pouch model introduced with E9 cells: plasma PLAP activity upon human IL4 stimulation; format: in vivo, CDF1 mouse; conditions: 1 ml of 3 ng/ml human IL4 injected into air pouch, plasma after 24 hours
Protocol: 5% cytodex3 (Amersham Bioscience, 17-0485-01) solution and 2% carboxymethylcellulose (hereinafter, also referred to as CMC) solution (Daiichi Kogyo Seiyaku Co., Ltd.) were prepared. More specifically, 5 g of cytodex3 was suspended in 100 ml of PBS (SIGMA, R8537) and sterilized in an autoclave. On the other hand, the 2% CMC solution was prepared by adding 2 g of CMC in 100 ml of PBS while stirring with a stirrer bar, followed by sterilization in the autoclave.
Then, the E9 cells were subjected to trypsin-EDTA treatment to be removed from the wall of the vessel and the cells were suspended in DMEM to be 1.0×10^6 cells/ml. 0.2 g of cytodex3 was mixed with 1.0×10^7 cells/ml E9 cells. More specifically, 4 ml of 5% cytodex3 solution was added to 10 ml of 1.0×10^6 cells/ml cell suspension. […]
Under anesthesia with diethyl ether (WAKO, 055-01155), 3 ml of air was introduced under the skin on the back of a CDF1 mouse (Charles River Japan) using a 5-ml syringe with a 27 G needle to make an air pouch. […] To inactivate endogenous alkaline phosphatases, the plasma sample was treated in a hot water bath at 65° C. for 10 minutes and then the PLAP activity derived from E9 cells in the plasma was measured. […] Subsequently, while shielding light, the mixture was incubated at room temperature for 1 hour, followed by measurement of intensity of chemiluminescence using a plate reader (Perkin Elmer, ARVO).

Molecule | inhibition of transcriptional activity through STAT6 activation by IL4 stimulation [1] | suppression of the PLAP activity activated by the IL4 stimulation as compared with the control group [2] | PLAP activity in culture supernatant upon IL4 stimulation compared to non-stimulating condition [3] | PLAP activity secreted in blood upon IL4 stimulation [4]
Cl.Cl.Cl.Fc1ccc(-c2n[nH]cc2-c2ccc3ncc(-c4nccs4)n3c2)cc1 [test compound, 2-(6-[3-(4-fluorophenyl)-1H-4-pyrazolyl]imidazo[1,2-a]pyridin-3-yl)-1,3-thiazole trihydrochloride] | inhibit transcriptional activity through STAT6 activation | 94.1% | – | –
IL4: human IL4 (Calbiochem, 407635), used as stimulus of STAT6-PLAP reporter cells (protein, UniProt P05112 25-153, looked up) Interleukin-4: HKCDITLQEIIKTLNSLTEQKTLCTELTVTDIFAASKNTTEKETFCRAATVLRQFYSHHEKDTRCLGATAQQFHRHKQLIRFLKRLDRNLWGLAGLNSCPVKEANQSTLENFLERLKTIMREKYSKCSS | – | – | higher PLAP activity was induced | remarkable increase of PLAP activity
